Reference: publication PMC2719696, “Kinetics and Cellular Site of Glycolipid Loading Control the Outcome of Natural Killer T Cell Activation” (Immunity, 2009)

Assays:
human iNKT cells = experiment: In vitro expansion of human iNKT cells from PBMC (FACS with 6B11 and anti-CD3); type: cell-based; settings: 100 nM glycolipid, IL-2 and IL-7, day 7
Procedure: Figure S3. Responses of human iNKT cells to Th2 cell-type cytokine biasing […]
(A) For in vitro expansion of iNKT cells, 2 million human PBMC per well in 96 well plates were stimulated with 100 nM of glycolipids in the presence of IL-2 (60 IU/ml) and IL-7 (5 ng/ml). At day 7, cultures were harvested and analyzed by FACS using 6B11 (specific for the TCRα chain of iNKT cells) and anti-CD3 mAbs. Significant expansion of human […]
all glycolipids with the exception of OCH. Similar results were obtained in three independent experiments from 6 different donors.
(B) Cytokine production by a CD4+ human iNKT clone (HDD11) stimulated with human monocyte-derived dendritic cells pulsed with αGalCer analogues. For in vitro activation of human iNKT cells, 5 x 10^4 cloned iNKT cells per well were stimulated with 2.5 x104 […]

mCD1d [1] = target: T1, mCD1d (Mus musculus, UniProt P11609); experiment: In vitro CD1d loading assay with immobilized mCD1d, saposins or Triton X-100, DN32.D3 hybridoma IL-2 readout; type: biochemical; settings: for effect of all four saposins on mCD1d loading: saposins 10 μg/ml
T1 sequence (P11609 22-305 limits assumed): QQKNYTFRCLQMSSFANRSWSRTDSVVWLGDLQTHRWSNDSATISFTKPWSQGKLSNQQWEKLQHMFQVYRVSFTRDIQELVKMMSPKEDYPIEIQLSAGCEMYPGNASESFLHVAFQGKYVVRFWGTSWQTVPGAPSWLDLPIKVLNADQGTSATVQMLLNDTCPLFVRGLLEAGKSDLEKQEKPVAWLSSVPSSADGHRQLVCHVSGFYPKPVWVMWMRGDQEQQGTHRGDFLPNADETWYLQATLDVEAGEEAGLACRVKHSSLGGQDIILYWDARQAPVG
T1 sequence (P01887 21-119 partner): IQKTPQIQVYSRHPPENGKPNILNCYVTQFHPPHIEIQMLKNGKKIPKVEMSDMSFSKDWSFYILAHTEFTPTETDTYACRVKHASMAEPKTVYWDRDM
Procedure: Figure 5 Lack of Detergent-like Cofactor Dependence of Th2 Cell-Type Cytokine-Biasing αGalCer Analogs (A) Glycolipids were incubated for 24 hr at 37°C with murine CD1d proteins in the absence (top row) or presence (bottom row) of 0.05% Triton X-100. The resulting complexes were assembled as tetramers and used for staining mouse iNKT hybridoma DN3A4.1-2. The dashed line histograms show background staining with unloaded tetramers, and the bold histograms show staining with glycolipid loaded tetramers. (B) The same analysis as in (A) except with human CD1d tetramers, which were also used for DN3A4.1-2 staining. (C) Glycolipids at various concentrations were incubated with immobilized mCD1d protein for 2 hr in pH 7.0 or pH 5.0 buffers with no additives (medium) or in the same buffers containing the indicated purified recombinant saposins (10 μg/ml) or Triton X-100 (0.05%). After washing, DN32.D3 iNKT hybridoma cells were added and supernatant concentrations of IL-2 were determined after an additional 14 hr of incubation. All results shown (A, B, and C) were representative of at least two independent experiments.
To extend these observations to a more physiological model, we tested the effects of purified recombinant saposin A, B, C, and D proteins on loading of αGalCer analogs.
Recombinant murine CD1d proteins at 4 μg/ml in 50 μl PBS were coated on the surfaces of microtiter plate wells for 2 hr at 37°C and then washed with PBS for removal of unbound proteins. Subsequently, various concentrations of glycolipids in 0.1 M sodium phosphate buffer (pH 7.0) or 0.1 M sodium citrate buffer (pH 5.0) containing 150 mM NaCl were incubated with or without 0.05% Triton X-100 or recombinant purified human saposins A, B, C, or D at 10 μg/ml for another 2 hr at 37°C. Saposins were produced and purified as described ([Yuan et al., 2007]). After extensive washing with PBS and media, 5 × 10^4 murine iNKT hybridoma DN32.D3 cells were added in 200 μl of complete medium and incubated at 37°C for 14 hr. Supernatants were analyzed for murine IL-2 by capture ELISA.

mCD1d [2] = target: T1, mCD1d; experiment: Loading of mCD1d tetramers with or without 0.05% Triton X-100, staining of hybridoma DN3A4.1-2; type: binding; settings: 0.05% Triton X-100, 24 hr at 37°C
From the text: The efficient loading of CD1 molecules with lipids such as αGalCer-C26:0 is known to involve cofactors that enhance the transfer of lipids from micelles or membranes into the antigen-binding groove of the CD1 protein. The best known of these cofactors are resident intracellular lipid binding and transfer proteins including those belonging to the saposin family, GM2 activator proteins, and Niemann-Pick type C1 and C2 proteins ([Zhou et al., 2004; Sagiv et al., 2006; Yuan et al., 2007; Schrantz et al., 2007]). Most of these are known to have detergent-like activities that facilitate solubilization of lipids and their exchange between hydrophobic binding sites. […]
Figure 5 Lack of Detergent-like Cofactor Dependence of Th2 Cell-Type Cytokine-Biasing αGalCer Analogs (A) Glycolipids were incubated for 24 hr at 37°C with murine CD1d proteins in the absence (top row) or presence (bottom row) of 0.05% Triton X-100. […] After washing, DN32.D3 iNKT hybridoma cells were added and supernatant concentrations of IL-2 were determined after an additional 14 hr of incubation. […]
Recombinant CD1d proteins were produced and assembled into tetramers for staining as previously described ([Forestier et al., 2007]). […] All samples were analyzed with the FACSCalibur flow cytometer (BD Biosciences).

## CCCCCCCCCCCCCCCCCCCCCCCC(=O)NC(COC1OC(CO)C(O)C(O)C1O)C(O)C(O)CCCCC (stereo not drawn) [OCH]
Human iNKT cells
  expansion of human iNKT cells (percentage of total viable lymphocytes): exception

## CCCCCCCCCCCCCCC(O)C(O)C(COC1OC(CO)C(O)C(O)C1O)NC(=O)CCCCCCCCC (stereo not drawn) [αGalCer-C10:0]
mCD1d [1]; acidic pH
  effect of all four saposins on mCD1d loading: reduced mCD1d loading
mCD1d [1]; neutral pH
  effect of all four saposins on mCD1d loading: only modest enhancement

## CCCCCCCCCCCCCCCCCCCCCCCC(=O)NC(COC1OC(CO)C(O)C(O)C1O)C(O)C(O)CCCCCCCCCCCCCC (stereo not drawn) [αGalCer-C24:0]
mCD1d [2]
  effect of Triton X-100 on formation of mCD1d tetramers that bind iNKT cell TCRs: clear enhancing effect

## CCCCCCCCCCCCCCCCCCCCCCCCCC(=O)NC(COC1OC(CO)C(O)C(O)C1O)C(O)C(O)CCCCCCCCCCCCCC (stereo not drawn) [αGalCer-C26:0, reference compound]
mCD1d [2]
  effect of Triton X-100 on formation of mCD1d tetramers that bind iNKT cell TCRs: clear enhancing effect
mCD1d [1]; recombinant mCD1d, iNKT hybridoma IL-2 readout
  cofactor dependence of mCD1d loading: dependent either on the presence of detergent (0.1% Triton X-100) or on the presence of a purified saposin
